This note sets out measurements from paper PMC6506387 (Structure (London, England : 1993), 2019).

Assay [1] has as its target T1, wt PKAcα (Homo sapiens, UniProt P17612). As to conditions: 1 mM ATP, 10 mM MgCl2, 20 mM MOPS pH 7.0, 150 mM NaCl, 0.5 °C/min.
The target in assay [2] is T1, wt PKAcα. To be noted: 20 mM MOPS pH 7.0, 150 mM NaCl; ATP 0-0.75 mM.

As for `Nc1ncnc2c1ncn2[C@@H]1O[C@H](COP(=O)(O)OP(=O)(O)OP(=O)(O)O)[C@@H](O)[C@H]1O` [ATP], on wt PKAcα [1], the thermal shift entry was “stabilities of apo PKAcα or J-PKAcα subunits and its ATP and/or peptide binding forms”. At wt PKAcα [2], the dissociation constant entry is listed as “ATP dissociation constants were determined using the ThermoFluor assay”.
